The results in this text go back to ChEMBL document CHEMBL3301470, “MMV Malaria Box screening against Plasmodium falciparum Deoxyhypusine hydroxylase” (2015).

This assay concerns the target T1, Deoxyhypusine hydroxylase (Plasmodium falciparum (isolate 3D7)) (UniProt Q8I701).
T1 sequence (whole entry): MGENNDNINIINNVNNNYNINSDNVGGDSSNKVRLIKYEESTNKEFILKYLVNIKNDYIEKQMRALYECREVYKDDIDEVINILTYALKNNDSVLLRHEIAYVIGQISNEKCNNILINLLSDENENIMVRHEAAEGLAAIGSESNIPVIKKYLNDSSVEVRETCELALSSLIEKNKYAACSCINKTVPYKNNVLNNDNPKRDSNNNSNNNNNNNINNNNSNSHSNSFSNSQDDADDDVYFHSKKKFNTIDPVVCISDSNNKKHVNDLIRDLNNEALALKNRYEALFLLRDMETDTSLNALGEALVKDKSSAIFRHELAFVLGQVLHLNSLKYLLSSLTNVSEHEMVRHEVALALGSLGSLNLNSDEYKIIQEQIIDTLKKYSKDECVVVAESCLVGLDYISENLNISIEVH
The assay is described as follows: MMV: Deoxyhypusine hydroxylase activity assay. The following applies: concentration not given here.

Molecules are shown by their SMILES.

Take `COc1ccc(-c2nc3cc(Cc4ccc5[nH]c(-c6ccc(OC)cc6)nc5c4)ccc3[nH]2)cc1`: the inhibition (in general, the change of the read-out against control, counted positive when it falls) is 38.8%.

Molecule `CCOc1ccc(-c2nonc2NC(=O)c2cccc(C)c2)cc1OCC` displayed an inhibition of 43.3%.

Turning to `c1ccc(Cn2c(N=Nc3c(Nc4ccccc4)ccc4ccccc34)nc3ccccc32)cc1`, the inhibition was 35.9%.
